According to US6780397B2, “Biomolecule conjugation strategy using novel water-soluble phosphine-based chelating agents” (Curators of the University of Missouri, priority 1998, dated 2004):

Assay: Stability of —PH2 compounds under storage and reaction conditions
Assay type: physicochemical
Description: As a result of working with the Br(CH2)3 PH2 intermediate, it was recognized that the intermediate was unexpectedly stable under a variety of storage and reaction conditions.
Furthermore, the reactivity of the —PH2 groups in these compounds toward molecules containing a wide spectrum of functional groups (including carboxylic acids, amines, thiols, and proteins) was remarkably low or non-measurable.

stability to reaction conditions of solid phase peptide synthesis (HBTU, piperidine, solutions in DMF, trifluoroacetic acid wash) | oxidation of —PH2 groups (during SPPS and analysis) | stability profile (wider range of chemical conditions than used with the Br(CH2)3PH2 intermediate) | Compound | stability under storage and reaction conditions (variety of solvents, wide pH range and temperature range)
 |  |  | PCCCBr.[HH] [Br(CH2)3 PH2, 3-bromo-propyl phosphine hydride] | reasonably stable
stable | resistant to oxidation | much improved stability profile | O=C(O)CCCCC(CCSCCCP)SCCCP (stereo not shown) [(PH2)2S2—COOH, H2P(CH2)3SCH2CH2CH((CH2)4COOH)S(CH2)3PH2] | 
